Columns and labels:
[1] = tested on: Transthyretin (Homo sapiens), P02766 [V50M]; experiment: (§1) Inhibition of recombinant Transthyretin V30M mutant (unknown origin) expressed in Escherichia coli expression system assessed as acid mediated fibril formation at 1.8 uM preincubated for 2 hrs followed by addition of acetate buffer solution and measured after 72 hrs by UV-vis spectrophotometry relative to control; details: time 74.0 hrs, values are per cent of control
[2] = biological target: T1, Transthyretin (Homo sapiens, UniProt P02766); experiment: as §1, with “recombinant wild-type” for “recombinant”, “Transthyretin” for “Transthyretin V30M mutant”; details: time 74.0 hrs, values are per cent of control
[3] = biological target: T1, Transthyretin; experiment: as §1, with “recombinant wild-type” for “recombinant”, “Transthyretin” for “Transthyretin V30M mutant”, “3.6” for “1.8”; details: time 74.0 hrs, values are per cent of control
[4] = tested on: Transthyretin (Homo sapiens), P02766 [V50M]; experiment: as §1, with “3.6” for “1.8”; details: time 74.0 hrs, values are per cent of control
[5] = biological target: T1, Transthyretin; experiment: Inhibition of recombinant wild-type Transthyretin (unknown origin) expressed in Escherichia coli expression system assessed as acid mediated fibril formation at 1.8 uM measured after 120 hrs by UV-vis spectrophotometry relative to control
[6] = biological target: T1, Transthyretin
Description: Covalent inhibition of urea-induced Transthyretin denaturation in human plasma preincubated for 1 hr followed by urea addition by Western blot analysis

[7] = tested on: Transthyretin (Homo sapiens), P02766 [V50M]; experiment: Inhibition of recombinant Transthyretin V30M mutant (unknown origin) assessed as acid mediated fibril formation at 7.2 uM relative to control

| Compound | response, % of control [1] | response, % of control [2] | response, % of control [3] | response, % of control [4] | inhibition [5] | IC50 [6] | inhibition [7] |
| --- | --- | --- | --- | --- | --- | --- | --- |
| CCCC(=O)Oc1c(Br)cc(/C=C/c2c(C)n[nH]c2C)cc1Br | 23.5% | 2.7% | 0.3% | 6.6% |  |  |  |
| O=C(O)c1ccc2nc(-c3cc(Cl)cc(Cl)c3)oc2c1 | 53.8% | 40.9% | 11.1% | 21% | 46% |  |  |
| Cc1n[nH]c(C)c1/C=C/c1cc(Br)c(OC(=O)c2ccc(F)cc2)c(Br)c1 | 15.7% | 5.7% | 0.2% | 3.9% | < 5% | 450 nM |  |
| CCC(C)C(=O)Oc1c(Br)cc(/C=C/c2c(C)n[nH]c2C)cc1Br (stereo unspecified) | 18% | 2.2% | 0.3% | 2.9% |  |  |  |
| Cc1n[nH]c(C)c1/C=C/c1cc(Br)c(O)c(Br)c1 | 41.7% | 17.3% | 9.2% | 11.1% |  |  | 39% |
| Cc1n[nH]c(C)c1/C=C/c1cc(Br)c(OC(=O)c2c(F)cccc2F)c(Br)c1 | 14.8% | 1.2% | 0.3% | 3.5% | < 5% | 570 nM |  |
| Cc1n[nH]c(C)c1/C=C/c1cc(Br)c(OC(=O)c2c(F)cc(F)cc2F)c(Br)c1 | 13.8% | 0.8% | 0.3% | 3% | < 5% | 470 nM |  |

Source: ChEMBL document CHEMBL5380798, “Novel Strategy To Inhibit Transthyretin Amyloidosis via the Synergetic Effect of Chemoselective Acylation and Noncovalent Inhibitor Release” (J Med Chem, 2023)
